Data: ChEMBL document CHEMBL1201862, “PubChem BioAssay data set” (2004)
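Cells were grown in 96-well plates and exposed to each compound for 48 hours at five concentrations; endpoints were interpolated linearly between bracketing concentrations, or set to the highest concentration if not reached. The concentration for 50% growth inhibition is given as GI50.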 Active and inactive are the calls of the source. Cut-off read from the data, not from the text of the source: active = GI50 up to about 1.1 µM and inactive = higher.

Tests used:
Assay in all cases: growth of human tumour cells (NCI), 48 h
ACHN = test system: ACHN
COLO 205 = test system: COLO 205
HCC 2998 = test system: HCC 2998
HL-60 = test system: HL-60
HOP-92 = test system: HOP-92
K562 = test system: K562
KM-20L2 = test system: KM-20L2
LOX IMVI = test system: LOX IMVI
MOLT-4 = test system: MOLT-4
OVCAR-5 = test system: OVCAR-5
RXF 393 = test system: RXF 393
SF-268 = test system: SF-268
SF-295 = test system: SF-295
SK-MEL-2 = test system: SK-MEL-2

Measured: GI50

CC(C)(C)N1CC2(CCCCC2)C1=O
inactive: ACHN > 100 µM | COLO 205 > 100 µM | HCC 2998 > 100 µM | HL-60 > 100 µM | HOP-92 > 100 µM | K562 > 100 µM | KM-20L2 > 100 µM | LOX IMVI > 100 µM | MOLT-4 > 100 µM | OVCAR-5 > 100 µM | RXF 393 > 100 µM | SF-268 99.1 µM | SF-295 > 100 µM | SK-MEL-2 > 100 µM

COc1ccc2nccc(C3OC(=O)N4CCC(=O)CC34)c2c1 (stereo not given)
inactive: ACHN > 100 µM | COLO 205 > 100 µM | HL-60 > 100 µM | HOP-92 67.1 µM | K562 > 100 µM | KM-20L2 > 100 µM | LOX IMVI > 100 µM | MOLT-4 > 100 µM | OVCAR-5 > 100 µM | RXF 393 > 100 µM | SF-268 > 100 µM | SF-295 > 100 µM | SK-MEL-2 > 100 µM

CC(=O)O[C@H]1CC[C@@]2(C)C(CC[C@]3(C)C2CC[C@]2(C)Oc4c(C)cc(O)cc4C[C@@H]23)C1(C)C (stereo not given in full)
inactive: ACHN 5.46 µM | COLO 205 14.5 µM | HCC 2998 7.6 µM | HL-60 3.82 µM | HOP-92 6.85 µM | K562 3.96 µM | KM-20L2 5.5 µM | LOX IMVI 8.75 µM | MOLT-4 2.84 µM | OVCAR-5 10.9 µM | RXF 393 2.88 µM | SF-268 4.61 µM | SF-295 2.17 µM | SK-MEL-2 7.52 µM

CN1CCN2c3ccccc3CC(C#N)(C#N)C2C1 (stereo not given)
inactive: ACHN > 100 µM | COLO 205 > 100 µM | HCC 2998 > 100 µM | HL-60 > 100 µM | HOP-92 > 100 µM | K562 > 100 µM | KM-20L2 > 100 µM | LOX IMVI > 100 µM | MOLT-4 > 100 µM | OVCAR-5 > 100 µM | RXF 393 > 100 µM | SF-268 > 100 µM | SF-295 > 100 µM | SK-MEL-2 > 100 µM

CCOC(=O)C1S/C(=N\c2ccc(OC)c(OC)c2)N=C1C (stereo not given)
inactive: ACHN 33.6 µM | COLO 205 69.3 µM | HCC 2998 51.9 µM | HL-60 19.2 µM | HOP-92 37.2 µM | K562 36.6 µM | KM-20L2 27 µM | LOX IMVI 32.5 µM | OVCAR-5 40.2 µM | RXF 393 29.9 µM | SF-268 33.6 µM | SF-295 36.5 µM | SK-MEL-2 29.8 µM

O=C1Nc2ccccc2C12CCCC2
inactive: ACHN > 100 µM | COLO 205 > 100 µM | HCC 2998 > 100 µM | HL-60 > 100 µM | K562 > 100 µM | KM-20L2 > 100 µM | MOLT-4 > 100 µM | RXF 393 > 100 µM | SF-268 > 100 µM | SF-295 > 100 µM | SK-MEL-2 > 100 µM

O=C(O)COc1ccc2c3c1C(=O)CCC3CO2 (stereo not given)
inactive: ACHN > 100 µM | COLO 205 > 100 µM | HCC 2998 > 100 µM | HL-60 > 100 µM | HOP-92 > 100 µM | K562 > 100 µM | KM-20L2 > 100 µM | LOX IMVI > 100 µM | MOLT-4 > 100 µM | OVCAR-5 > 100 µM | SF-268 > 100 µM | SF-295 > 100 µM | SK-MEL-2 > 100 µM

COc1c(C)c2c(c(C)c1Cl)Oc1c(C=O)c(O)c(Cl)c(C)c1C(=O)O2
inactive: ACHN 22.4 µM | COLO 205 22.8 µM | HCC 2998 28.1 µM | HL-60 22.3 µM | K562 26.8 µM | KM-20L2 30.5 µM | LOX IMVI 25.9 µM | MOLT-4 20.6 µM | OVCAR-5 28.1 µM | SF-268 27.8 µM | SF-295 30.9 µM

O=C(O)/C(=C/c1ccccc1[N+](=O)[O-])c1cccs1
inactive: ACHN > 100 µM | COLO 205 > 100 µM | HCC 2998 > 100 µM | HL-60 > 100 µM | K562 > 100 µM | KM-20L2 > 100 µM | LOX IMVI > 100 µM | MOLT-4 > 100 µM | OVCAR-5 > 100 µM | SF-268 > 100 µM | SF-295 > 100 µM | SK-MEL-2 > 100 µM

C=C1C(=O)O[C@H](c2ccoc2)C[C@@H]1[C@@]1(C)CCCC2(C)C(=O)OCC21 (stereo not given in full)
inactive: ACHN > 100 µM | COLO 205 > 100 µM | HCC 2998 > 100 µM | K562 > 100 µM | KM-20L2 > 100 µM | LOX IMVI > 100 µM | MOLT-4 > 100 µM | OVCAR-5 > 100 µM | RXF 393 > 100 µM | SF-268 > 100 µM | SF-295 > 100 µM | SK-MEL-2 > 100 µM

Nc1nc(CCC(=O)Nc2cccc(C(F)(F)F)c2)cc(-c2cccc3ccccc23)n1
inactive: ACHN > 100 µM | COLO 205 > 100 µM | HCC 2998 > 100 µM | HL-60 > 100 µM | K562 > 100 µM | KM-20L2 > 100 µM | LOX IMVI > 100 µM | MOLT-4 > 100 µM | OVCAR-5 > 100 µM | RXF 393 > 100 µM | SF-268 > 100 µM | SF-295 > 100 µM | SK-MEL-2 > 100 µM

CC1=C(C(=O)Nc2ccccc2C)C(/C=C/c2ccccc2)C(C(=O)Nc2ccccc2C)=C(C)N1
inactive: ACHN > 100 µM | COLO 205 > 100 µM | HCC 2998 > 100 µM | HL-60 72.3 µM | HOP-92 80 µM | K562 > 100 µM | KM-20L2 > 100 µM | LOX IMVI 74.8 µM | OVCAR-5 > 100 µM | RXF 393 51.1 µM | SF-268 > 100 µM | SF-295 > 100 µM | SK-MEL-2 > 100 µM

CCOC(=O)C(=O)Nc1ccccc1C(F)(F)F
inactive: ACHN > 100 µM | COLO 205 > 100 µM | HCC 2998 > 100 µM | HOP-92 > 100 µM | KM-20L2 > 100 µM | LOX IMVI > 100 µM | OVCAR-5 > 100 µM | RXF 393 > 100 µM | SF-268 > 100 µM | SF-295 > 100 µM | SK-MEL-2 > 100 µM

CC(C)=C1CCC(CN2CCCC2)C1=O (stereo not given)
inactive: ACHN 18.6 µM | HCC 2998 20.3 µM | HL-60 19.7 µM | HOP-92 24.6 µM | K562 21.8 µM | KM-20L2 89.7 µM | LOX IMVI > 100 µM | MOLT-4 21.9 µM | OVCAR-5 94.6 µM | RXF 393 21.4 µM | SF-268 33.8 µM | SF-295 > 100 µM | SK-MEL-2 29.6 µM

O=C(C(=O)c1ccc(Cc2ccc(C(=O)C(=O)c3ccccc3)cc2)cc1)c1ccccc1
inactive: ACHN > 100 µM | COLO 205 > 100 µM | HCC 2998 > 100 µM | HL-60 > 100 µM | HOP-92 > 100 µM | K562 > 100 µM | KM-20L2 > 100 µM | LOX IMVI > 100 µM | OVCAR-5 > 100 µM | RXF 393 > 100 µM | SF-268 > 100 µM | SF-295 > 100 µM | SK-MEL-2 > 100 µM
